pEC50: −log10 of the molar value. Structures can show the parent of a compound that is named as a salt.

The assay has as its target RIPK1 (recombinant GST-RIPK1 kinase domain, residues 1-327) (Homo sapiens (Human), UniProt Q13546). Nature of the assay: RIPK1-ADP-Glo Enzymatic Assay. In kind it is biochemical. The conditions noted are these: ADP-Glo; 25 nM GST-RIPK1, 300 μM ATP; assay lower limit ~25 nM; read-out: RIPK1 V0 Ec50. An outline of the steps: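 GST-tagged kinase domain (residues 1-327, Sf21-expressed), 25 nM, pre-incubated 30 min with compound at ambient temperature, then reacted 150 min with 300 μM ATP and 3 μM dephosphorylated MBP in HEPES pH 7.3 buffer. ADP measured by ADP-Glo luminescence; EC50 from ten-point titration (top 100000 nM), four-parameter fit.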

Sequence of RIPK1 (recombinant GST-RIPK1 kinase domain, residues 1-327) (Q13546 1-327): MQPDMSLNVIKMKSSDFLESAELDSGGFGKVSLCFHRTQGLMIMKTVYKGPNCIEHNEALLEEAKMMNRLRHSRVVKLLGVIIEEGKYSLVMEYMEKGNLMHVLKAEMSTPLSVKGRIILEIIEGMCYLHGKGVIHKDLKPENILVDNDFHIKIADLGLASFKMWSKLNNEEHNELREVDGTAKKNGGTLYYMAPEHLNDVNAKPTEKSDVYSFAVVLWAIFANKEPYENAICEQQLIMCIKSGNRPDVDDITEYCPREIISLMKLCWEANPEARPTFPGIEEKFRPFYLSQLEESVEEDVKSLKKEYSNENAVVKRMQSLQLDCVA

In the case of `O=C(c1ccc(F)cc1F)N1CCC2(CC1)O[C@@H]1CC[C@@H](c3cc(F)cc(F)c3)N1C2=O` [Example 5.5, (5′S,7a′R)-1-(2,4-difluoro-benzene-1-carbonyl)5′-(3,5-difluorophenyl)tetra-hydro-3′H-spiro[piperi-dine-4,2′-pyrrolo[2,1-b] [1,3]oxazol]-3′-one], the pEC50 (commonly −log10 of the EC50, conventionally taken in molar units) was over 7.60.
The value for `O=C1N2[C@@H](CC[C@H]2c2ccccc2)OC12CCN(c1ncc(-c3ncco3)c(C(F)(F)F)n1)CC2` [Example 21.2, (5′S,7a′R)-1-[5-(1,3-oxazol-2-yl)-4-(trifluoromethyl)pyrimidin-2-yl]-5′-phenyltetrahydro-3′H-spiro[piperidine-4,2′-pyrrolo[2,1-b][1,3]oxazol]-3′-one] was over 7.60; that for `N#Cc1ccc(N2CCC3(CC2)O[C@@H]2CC[C@@H](c4cc(F)cc(F)c4)N2C3=O)n2nccc12` [Example 14.1, 7-((5′S,7a′R)-5′-(3,5-difluorophenyl)-3′-oxotetrahydro-3′H-spiro [piperidine-4,2′-pyrrolo [2,1-b]oxazol]-1-yl)pyrazolo[1,5-a]pyridine-4-carbonitrile, TFA] was over 7.60.
The value for `Cc1cnc([C@@H]2CC[C@H]3OC4(CCN(C(=O)c5ccccc5)CC4)C(=O)N32)cn1` [Example 6.143, (5′S,7a′R)-1-(benzene-carbonyl)-5′-(5-meth-ylpyrazin-2-yl)tetra-hydro-3′H-spiro [piperidine-4,2′-pyrrolo[2,1-b][1,3]oxazol]-3′-one] was 7.25.
The value for `Cc1nocc1C(=O)N1CCC2(CC1)O[C@@H]1CC[C@@H](c3cc(F)cc(F)c3)N1C2=O` [Example 5.33, (5′S,7a′R)-5′-(3,5-difluoro-phenyl)-1-(3-methylisoxa-zole-4-carbonyl)tetrahydro-3′H-spiro[piperidine-4,2′-pyrrolo[2,1-b]oxazol]-3′-one] was 6.72; that for `O=C1N2[C@@H](CC[C@H]2C2CCCCC2)OC12CCN(c1ccnc3c(F)cnn13)CC2` [Example 4.87, (5′S,7a′R)-5′-cyclohexyl-1-(3-fluoropyrazolo [1,5-a]pyrimidin-7-yl)tetrahydro-3′H-spiro[piperidine-4,2′-pyrrolo[2,1-b]oxazol]-3′-one, TFA salt] was over 7.60; that for `Cc1nc(N2CCC3(CC2)O[C@@H]2CC[C@@H](c4ccccc4)N2C3=O)ccc1C#N` [Example 4.74, 2-methyl-6-[(5′S,7a′R)-3′-oxo-5′-phenyltetrahydro-1H,3′H-spiro[piperidine-4,2′-pyrrolo[2,1-b] [1,3]oxazol]-1-yl]pyridine-3-carbonitrile] was over 7.60.
Regarding `Cc1nc(N2CCC3(CC2)O[C@@H]2CC[C@@H](c4cc(F)cc(F)c4)N2C3=O)ccc1C#N` [Example 4.42, 6-[(5′S,7a′R)-5′-(3,5-difluorophenyl)-3′-oxotetrahydro-1H,3′H-spiro[piperidine-4,2′-pyrrolo[2,1-b] [1,3]oxazol]-1-yl]-2-methylpyridine-3-carbonitrile], the pEC50 was over 7.60.
On to `N#Cc1ccccc1C(=O)N1CCC2(CC1)O[C@@H]1CC[C@@H](c3cc(F)cc(F)c3)N1C2=O` [Example 5.13, 2-((5′S,7a′R)-5′-(3,5-difluorophenyl)-3′-oxo-tetrahydro-3′H-spiro [piperidine-4,2′-pyrrolo-[2,1-b]oxazole]-1-carbon-yl)benzonitrile], for which the pEC50 is 6.56.
As to `N#Cc1cnn2c(N3CCC4(CC3)O[C@@H]3CC[C@@H](c5ccccc5)N3C4=O)ncnc12` [Example 4.218, 4-[(5′S,7a′R)-3′-oxo-5′-phenyltetrahydro-1H,3′H-spiro[piperidine-4,2′-pyrrolo[2,1-b] [1,3]oxazol]-1-yl]pyrazolo[1,5-a] [1,3,5]triazine-8-carbonitrile], the pEC50 was over 7.60.
For `O=C(c1nc(Br)ccc1F)N1CCC2(CC1)O[C@@H]1CC[C@@H](c3cc(F)cc(F)c3)N1C2=O` [Example 6.82], the pEC50 is over 7.60.
The value for `Cc1nccnc1[C@@H]1CC[C@H]2OC3(CCN(c4ccnc5c(F)cnn45)CC3)C(=O)N21` [Example 4.144, (5′S,7a′R)-1-(3-fluoropyrazolo[1,5-a]pyrimidin-7-yl)-5′-(3-methylpyrazin-2-yl)tetrahydro-3′H-spiro[piperidine-4,2′-pyrrolo[2,1-b] [1,3]oxazol]-3′-one] was 7.38; that for `N#Cc1cnc(N2CCC3(CC2)O[C@@H]2CC[C@@H](c4cc(F)cc(F)c4)N2C3=O)s1` [Example 4.101, 2-((5′S,7a′R)-5′-(3,5-difluorophenyl)-3′-oxotetrahydro-3′H-spiro[piperidine-4,2′-pyrrolo[2,1-b]oxazol]-1-yl)thiazole-5-carbonitrile] was 7.39; that for `CC1C[C@@]2(CCN1C(=O)c1ccccc1)O[C@@H]1CC[C@@H](c3cccc(F)c3)N1C2=O` (stereo partly drawn) [Example 6.160, (4R,5′S,7a′R)-1-(benzenecarbonyl)-5′-(3-fluorophenyl)-2-methyltetrahydro-3′H-spiro[piperidine-4,2′-pyrrolo[2,1-b] [1,3]oxazol]-3′-one] was over 7.60.
With `Cc1ccc(F)c(C(=O)N2CCC3(CC2)O[C@@H]2CC[C@@H](c4ccccc4F)N2C3=O)c1` [Example 1.17, (5′S,7a′R)-1-(2-fluoro-5-methylbenzoyl)-5′-(2-fluorophenyl)tetrahydro-3′H-spiro[piperidine-4,2′-pyrrolo[2,1-b]oxazol]-3′-one] the figure was over 7.60.
With `N#Cc1ccc(F)c(C(=O)N2CCC3(CC2)O[C@@H]2CC[C@@H](c4cccc(F)c4)N2C3=O)c1` [Example 6.130, 4-fluoro-3-[(5′S,7a′R)-5′-(3-fluorophenyl)-3′-oxotetrahydro-1H,3′H-spiro[piperidine-4,2′-pyrrolo[2,1-b][1,3]-oxazole]-1-carbonyl] benzonitrile] the figure was over 7.60.
For the molecule `O=C(NC1(C(F)(F)F)CC1)c1nc(N2CCC3(CC2)O[C@@H]2CC[C@@H](c4cc(F)cc(F)c4)N2C3=O)ncc1F` [Example 7.10, 2-[(5′S,7a′R)-5′-(3,5-difluorophenyl)-3′-oxotetrahydro-1H,3′H-spiro[piperidine-4,2′-pyrrolo[2,1-b][1,3]oxazol]-1-yl]-5-fluoro-N-[1-(trifluoromethyl)cyclo-propyl]pyrimidine-4-carboxamide], the pEC50 is 6.83.
In the case of `O=C(c1ccnc2ncnn12)N1CCC2(CC1)O[C@@H]1CC[C@@H](c3cc(F)cc(F)c3)N1C2=O` [Example 6.76, (5′S,7a′R)-5′-(3,5-difluorophenyl)-1-([1,2,4]triazolo[1,5-a]pyrimidine-7-car-bonyl)tetrahydro-3′H-spiro[piperidine-4,2′-pyrrolo[2,1-b] [1,3]oxazol]-3′-one], the pEC50 is 6.74.
The value for `O=C(c1nc2ccncc2s1)N1CCC2(CC1)O[C@@H]1CC[C@@H](c3cc(F)cc(F)c3)N1C2=O` [Example 6.23, (5′S,7a′R)-5′-(3,5-difluorophenyl)-1-([1,3]thiazolo[5,4-c]-pyridine-2-carbonyl) tetrahydro-3′H-spiro [piperidine-4,2′-pyrrolo[2,1-b][1,3]oxazol]-3′-one] was 7.02; that for `O=C1N2[C@@H](CC[C@H]2c2ccccc2)OC12CN(c1ccnc3ccnn13)C2` [Example 4.136, (5′S,7a′R)-5′-phenyl-1-(pyrazolo[1,5-a]pyrimidin-7-yl)tetrahydro-3′H-spiro[azetidine-3,2′-pyrrolo[2,1-b] [1,3]oxazol]-3′-one] was over 7.60; that for `O=C1N2[C@@H](CC[C@H]2c2ccccc2)OC12CCN(c1cc(Cl)nc(C3CCCCC3)n1)CC2` [Example 4.34, (5′S,7a′R)-1-(6-chloro-2-cyclohexylpyrimidin-4-yl)-5′-phenyltetrahydro-3′H-spiro[piperidine-4,2′-pyrrolo[2,1-b] [1,3]oxazol]-3′-one] was 7.08.
The value for `O=C1N2[C@@H](CC[C@H]2c2ccccc2)OC12CCN(c1cc(CF)ncn1)CC2` [Example 4.203, (5′S,7a′R)-1-[6-(fluoromethyl)pyrimidin-4-yl]-5′-phenyltetrahydro-3′H-spiro[piperidine-4,2′-pyrrolo[2,1-b] [1,3]oxazol]-3′-one] was 7.32; that for `O=C(c1ccn2ccccc12)N1CCC2(CC1)O[C@@H]1CC[C@@H](c3cc(F)cc(F)c3)N1C2=O` [Example 5.68, (5′S,7a′R)-5′-(3,5-difluoro-phenyl)-1-(indolizine-1-carbonyl)tetrahydro-3′H-spiro[piperidine-4,2′-pyrrolo[2,1-b]oxazol]-3′-one] was over 7.60.
Take `Cc1ccc([C@@H]2CC[C@H]3OC4(CCN(C(=O)c5ccccc5)CC4)C(=O)N32)c(F)c1` [Example 17.11, (5′S,7a′R)-1-benzoyl-5′-(2-fluoro-4-methylphenyl)tetrahydro-3′H-spiro[piperidine-4,2′-pyrrolo[2,1-b]oxazol]-3′-one]: the pEC50 is over 7.60.
The value for `CN(C)C(=O)c1ccc(N2CCC3(CC2)O[C@@H]2CC[C@@H](c4ccccc4)N2C3=O)nc1` [Example 4.167, N,N-dimethyl-6-[(5′S,7a′R)-3′-oxo-5′-phenyltetrahydro-1H,3′H-spiro[piperidine-4,2′-pyrrolo[2,1-b] [1,3]oxazol]-1-yl]pyridine-3-carboxamide] was 6.59; that for `Cc1cc(C(=O)N2CCC3(CC2)O[C@@H]2CC[C@@H](c4cc(F)cc(F)c4)N2C3=O)ccc1C#N` [Example 5.18, 4-((5′S,7a′R)-5′-(3,5-difluorophenyl)-3′-oxo-tetrahydro-3′H-spiro [piperidine-4,2′-pyrrolo-[2,1-b]oxazole]-1-carbon-yl)-2-methylbenzonitrile] was 6.86; that for `O=C(c1cc(F)ccc1F)N1CCC2(CC1)O[C@@H]1CC[C@@H](c3ccccc3F)N1C2=O` [Example 1.12, (5′S,7a′R)-1-(2,5-difluorobenzoyl)-5′-(2-fluorophenyl)tetrahydro-3′H-spiro[piperidine-4,2′-pyrrolo[2,1-b]oxazol]-3′-one] was over 7.60.

These data come from patent US12180226B2, “Spirotricycle RIPK1 inhibitors and methods of uses thereof” (Merck Sharp & Dohme LLC, priority 2021, dated 2024).
